From patent US20240368668A1, “SUBSTRATES AND BIOMARKERS OF ADAMTS7” (The Broad Institute, Inc., priority 2021, published 2024)

Tested on: mouse ADAMTS7
Assay: TMT10 TAILS N-terminomics, HUVEC experiment (process replicates, trypsin/AspN digest)
Type: cell-based, human
Conditions: for logFC.mWT.over.mEQ: HUVEC TAILS HC, log fold change of N-terminal peptide, Ad-mADAMTS7 WT over EQ; for HUVEC logFC.mWT.over.mEQ: HUVEC experiment, log fold change, mouse ADAMTS7 WT over EQ
Description: ADAMTS7 Expression, Cell Culture and Preparation of the Secreted Proteins—Full-length mouse Adamts7 1-1857 (Uniprot Q68SA9, WT or E373Q catalytic mutant) with a carboxyl terminal 3xFLAG tag was used to generate custom adenoviruses as previously described. Adeno-CMV-Luciferase (Ad-Luc) from Vector Biolabs was used as a negative control. Human Coronary Artery Smooth Muscle Cells (HCA-SMC) were obtained from Lonza and expanded in Lonza SmGM-2 media in 15 cm tissue culture plates. Twenty-four hours before media collection, near confluent plates were transduced with 50 MOI adenovirus and switched to Lonza Basal SM media with volumes of 20 ml per 15 cm plate. Expression of the Flag tagged ADAMTS7 was confirmed from the media using western blot and detected using the anti-Flag M2-HRP antibody (Sigma, A8592). Collected media was processed by adding protease inhibitors (1 mM EDTA and 1 mM PMSF) and clarified by 500 g×5 min spin at 4 C to pellet cell debris. Cell media supernatants were then passed through a 0.22 um filter and kept chilled. Processed media was then concentrated 50-100× using 3 kDa Centricon Plus-70 filter unit, spun at 3,500 g×60 min at 4 C. Approximately 10% of the processed, concentrated media was set aside for total secretome proteolytic analysis. The remaining 90% of the processed, concentrated media was buffer exchanged into 50 mM HEPES pH 8.0, 150 mM NaCl (2×50 ml) using the 3 kDa Centricon Plus-70 filter unit and concentrated to >2 mg/ml to serve as input for the TAILS experiment. Secretome and TAILS input samples were stored at −80° C.
For the first experiment, referred to as SMC1, 120 ml of media from 6×15 cm dishes was pooled from each condition (Luc, WT, EQ) and processed to produce three separate inputs for the TAILS experiment. Luc, WT and EQ inputs from the SMC1 experiment were each divided into triplicate 400 ug samples to generate technical replicate TAILS data. For the second experiment, referred to as SMC2, media was processed separately in triplicate for each condition (Luc1, Luc2, Luc3, WT1, WT2, WT3, EQ1, EQ2, EQ3) using 60 ml of media from 3×15 cm dishes for each process replicate. Inputs from the SMC2 experiment used process replicates of 300 ug each to generate TAILS data. The third experiment used input from cultured Human umbilical vein endothelial cells (HUVEC) from Lifeline Cell Technology grown in VascuLife Media and transduced in Lifeline Basal EC (+bFGF2 10 ng/ml). The HUVEC experiment used the same strategy as the SMC2 experiment, with 40 ml of media from 2×15 cm dishes for each process replicate and used 200 ug each to generate TAILS data. Inputs for process replicate experiments were restricted to the lowest concentration from the 9 parallel samples for SMC2 or HUVEC.
TMT10 isotopic labeling and negative selection of non-labeled peptides-Sample preparation was performed based on the TAILS protocol from the Overall lab with some modifications. From a single experiment, nine parallel protein samples in 50 mM HEPES pH 8.0, 150 mM NaCl were separately denatured with guanidinium chloride (Sigma, G4505) to reach a final concentration of 2.5M guanidinium chloride and 250 mM HEPES and incubated at 65° C. for 15 min. Reduction was achieved through addition of tris(2-carboxylethyl) phosphine (TCEP) at a final concentration of […] and incubated at 65° C. for 45 min. Alkylation reaction was performed with addition of iodoacetamide (IAA, Sigma, A3221) to a final concentration of 10 mM IAA for 15 min at room temperature in the dark. Following denaturation, reduction and alkylation steps, ten percent of each of the nine parallel protein samples was removed and combined to serve as a pooled reference. Isobaric tags were added to free amine groups using the TMT10plex Isobaric Mass Tagging Kit (ThermoFisher, 90113) with TMT channels randomly assigned to the nine samples and TMT 131 assigned to the pooled reference. […]

## AEBP1_37 (FLEGFLSELEPEPR; listed as Homo sapiens)
  logFC.mWT.over.mEQ: 4.34

## EFEMP1_124 (AVAGPEMQTGR; listed as Homo sapiens)
  logFC.mWT.over.mEQ: 3.31

## EFEMP1_125 (VAGPEMQTGR; listed as Homo sapiens)
  HUVEC logFC.mWT.over.mEQ: 2.45

## FBN1_29 (LEAGNVKETR; listed as Homo sapiens)
  logFC.mWT.over.mEQ: 3.91

## FLNA_1285 (LTQTGGPHVKAR; listed as Homo sapiens)
  logFC.mWT.over.mEQ: 3.81

## FN1_36 (MVQPQSPVAVSQSKPGCYDNGKHYQINQQWER; listed as Homo sapiens)
  logFC.mWT.over.mEQ: 3.45

## FN1_40 (QSPVAVSQSKPGCYDNGKHYQINQQWER; listed as Homo sapiens)
  logFC.mWT.over.mEQ: 2.96

## FN1_886 (NQESTPVVIQQETTGTPR; listed as Homo sapiens)
  logFC.mWT.over.mEQ: 2.04
  HUVEC logFC.mWT.over.mEQ: 3.68

## FN1_1143 (LTPGVEYVYTIQVLR; listed as Homo sapiens)
  logFC.mWT.over.mEQ: 3.68

## FN1_1656 (SSSPVTGYR; listed as Homo sapiens)
  logFC.mWT.over.mEQ: 1.63

## HSPG2_275 (LLPGSVR; listed as Homo sapiens)
  HUVEC logFC.mWT.over.mEQ: 0.77

## HSPG2_2331 (ANLAYPAGSTQPIR; listed as Homo sapiens)
  logFC.mWT.over.mEQ: 1.73

## IGFBP7_101 (AAGGPGVSGVCVCKSR; listed as Homo sapiens)
  logFC.mWT.over.mEQ: 1.89

## LOXL2_37 (FQQPAPEYHQPQAPANVAKIQLR; listed as Homo sapiens)
  logFC.mWT.over.mEQ: 3.48

## LOX_124 (WFQAGYSTSR; listed as Homo sapiens)
  logFC.mWT.over.mEQ: 3.35

## LTBP1_393 (LTATNFR; listed as Homo sapiens)
  logFC.mWT.over.mEQ: 3.33
